The test system of test [1] is mice immunosuppressed by administering cyclophosphamide (CY). As to the kind of experiment: Spleen size and spleen index in cyclophosphamide (CY)-immunosuppressed mice. In kind it is in vivo, BALB/c mice. Particulars: CY (80 mg/kg IP) mice, CY group compared to normal group, LEV 40 mg/kg, red ginseng 100 mg/kg, GBPs 50, 100, 250, 500 mg/kg BW orally; for spleen size: FIG. 1; for spleen index: FIG. 2. How it is done: Six-week-old male BALB/c mice (21-23 g) were purchased from the Central Lab, Animal Inc. (Korea) and housed under standard conditions with temperature maintained at 22±2° C. and a 12-h/12-h dark/light cycle.
(§1) In the present invention, 40 mice were randomly divided into 8 groups (n=5 per group) and variously treated according to Table 1.
(§2) Cyclophosphamide (CY) was used to induce immunosuppressive models by intraperitoneal (IP) injection at a dose of 80 mg/kg body weight (BW). […] In addition, ginseng was used with a commercially available product, and mice were sacrificed 24 hours after the last treatment of samples in Table 1.
The spleen was dissected and weighed. The spleen index was calculated according to Formula below:
Spleen index (mg/g)=spleen weight/body weight of mouse [Formula]

The next test concerns splenic lymphocytes. As to the kind of experiment: Splenic lymphocyte proliferation (EZ-Cytox) of splenocytes from treated mice, stimulated with Con A or LPS. Type of test: in vivo, BALB/c mice. Particulars: CY-treated group (80 mg/kg IP) compared to the normal group. Here is the method:
as §1, §2

The next test concerns NK cells. Put plainly: NK cell-mediated cytotoxicity assay, splenocytes co-cultured with YAC-1 cells. Type of test: in vivo, BALB/c mice. Particulars: CY-treated group (80 mg/kg IP); effector:target 50:1. Here is the method: as §1, §2
The subject of test [2] is immune-related genes (IL-1β, IL-2, IL-4, IL-6, TNF-α, IFN-γ, TLR-4, COX-2). Further details: species or system BALB/c mice. To be noted: mouse, in vivo. How it is done: as §1, §2

Each structure is given as a SMILES string.

Take `O=P1(N(CCCl)CCCl)NCCCO1` (centres unmarked) [CY, Cyclophosphamide]: in test [1], the spleen size entry was “decreases in both spleen size and spleen indices”; the spleen index entry was “decreases in both spleen size and spleen indices”. For the same compound, the “Con A-stimulated cell proliferation, reduction” value in the test with splenic lymphocytes (Con A 5 μg/ml) was 48.1%. The “LPS-stimulated cell proliferation, reduction” value in the test on splenic lymphocytes (LPS 10 μg/ml) worked out at 57.1%. Further, the “activity of NK cells” value in the test with NK cells is 42.9%. Further, the “mRNA expression levels of immune-related genes IL-2, IL-4, IL-6, TNF-α, IFN-γ, TLR-4 and COX-2” value in test [2] is given as “lower than those of the normal group”.
Regarding `c1ccc([C@H]2CN3CCSC3=N2)cc1` [LEV, Levamisole], in test [1], the spleen size entry is “increased spleen size and indices”; the spleen index result is “increased spleen size and indices”.

The values are drawn from patent US20250057872A1, “INNATE IMMUNOMODULATORY EFFECT OF GINSENG BERRY POLYSACCHARIDES IN IMMUNOCOMPROMISED CONDITIONS” (GANGNEUNG-WONJU NATIONAL UNIVERSITY INDUSTRY ACADEMY …, priority 2022, published 2025).
